Experimental findings from ChEMBL document CHEMBL1811813, “Synthesis and cytotoxicity of the depsipeptides analogues of callipeltin B” (Bioorg Med Chem Lett, 2011) are described below.

What all share (format): functional, cell-based
Assay [1] has as its system HeLa. In words: Cytotoxicity against human HeLa cells assessed as protease release from damaged cell after at 4-1000 uM after 24 hrs by luminometry.
The subject of assay [2] is HeLa. Briefly: Cytotoxicity against human HeLa cells assessed as protease release from damaged cell at 4-100 uM after 24 hrs by luminometry.
The subject of assay [3] is HeLa. In words: Cytotoxicity against human HeLa cells after 24 hrs by luminometry.

Calls of active or inactive are those of the source. The calls are words filed in the database; no cut-off is given here. Positions of bridges follow the written chain, without caps; N, C: chain ends. Non-standard residues stand in square brackets, D forms with d. Residues, ends and D or L forms follow the SMILES beside them. *: point of attachment. X1 = C[C@@H](OC(C)(C)C)[C@H](NC(=O)[C@@H](NC(=O)[C@@H]1CCC(=O)N1)[C@@H](C)O*)C(=O)O; NHTrityl = c1ccc(C(N*)(c2ccccc2)c2ccccc2)cc1; Pbf = Cc1c(C)c(S(=O)(=O)*)c(C)c2c1OC(C)(C)C2; NMeQ = CN[C@@H](CCC(N)=O)C(=O)O; pGlu = O=C1CC[C@@H](C(=O)O)N1; NMeA = CN[C@@H](C)C(=O)O; Boc = CC(C)(C)OC(=O)*; tBu = CC(C)(C)*

For the molecule `Cc1c(C)c(S(=O)(=O)NC(=N)NCCC[C@H](NC(=O)[C@@H](NC(=O)[C@@H](NC(=O)[C@H](CCC(N)=O)NC(=O)OC(C)(C)C)[C@@H](C)O)[C@@H](C)OC(C)(C)C)C(=O)N[C@@H](CC(C)C)C(=O)N[C@@H](CCC(=O)NC(c2ccccc2)(c2ccccc2)c2ccccc2)C(=O)N[C@@H](Cc2ccc(OC(C)(C)C)cc2)C(=O)N[C@@H](C)C(=O)O)c(C)c2c1OC(C)(C)C2` (Boc-QTT(tBu)R(Pbf)LE(NHTrityl)Y(tBu)A-OH), the outcome in assay [1] was inactive. `Cc1c(C)c(S(=O)(=O)NC(=N)NCCC[C@@H]2NC(=O)[C@H]([C@@H](C)OC(C)(C)C)NC(=O)[C@@H](NC(=O)[C@@H](N)CCC(N)=O)[C@@H](C)OC(=O)[C@H](C)NC(=O)[C@H](Cc3ccc(OC(C)(C)C)cc3)NC(=O)[C@H](CCC(=O)NC(c3ccccc3)(c3ccccc3)c3ccccc3)NC(=O)[C@H](CC(C)C)NC2=O)c(C)c2c1OC(C)(C)C2` (H-QTT(tBu)R(Pbf)LE(NHTrityl)Y(tBu)A; ester 2-C): the outcome in assay [2] was inactive. As to `Cc1c(C)c(S(=O)(=O)NC(=N)NCCC[C@H](N)C(=O)N[C@@H](CC(C)C)C(=O)N[C@@H](CCC(=O)NC(c2ccccc2)(c2ccccc2)c2ccccc2)C(=O)N[C@@H](Cc2ccc(OC(C)(C)C)cc2)C(=O)N[C@@H](C)C(=O)O[C@H](C)[C@H](NC(=O)[C@@H]2CCC(=O)N2)C(=O)N[C@H](C(=O)O)[C@@H](C)OC(C)(C)C)c(C)c2c1OC(C)(C)C2` (H-R(Pbf)LE(NHTrityl)Y(tBu)A-X1), in assay [3], the IC50 (commonly the concentration that gives 50% inhibition) was 2.26 mM. With `CC(C)C[C@@H]1NC(=O)[C@H](CCCNC(=N)N)NC(=O)[C@H]([C@@H](C)O)NC(=O)[C@@H](NC(=O)[C@@H]2CCC(=O)N2)[C@@H](C)OC(=O)[C@H](C)NC(=O)[C@H](Cc2ccc(O)cc2)NC(=O)[C@H](CCC(N)=O)NC1=O` ([pGlu]TTRLQYA; ester 2-C), the result in assay [2] was inactive. Same read-out and setting: the same measure for `CC(C)C[C@@H]1NC(=O)[C@H](C)N(C)C(=O)[C@H]([C@@H](C)O)NC(=O)[C@@H](NC(=O)[C@@H]2CCC(=O)N2)[C@@H](C)OC(=O)[C@H](CCC(N)=O)NC(=O)[C@H](Cc2ccc(O)cc2)NC(=O)[C@H](CCCNC(=N)N)NC1=O` ([pGlu]TT[NMeA]LRYQ; ester 2-C): “inactive”; for `CC(C)C[C@@H]1NC(=O)[C@H](C)N(C)C(=O)[C@H]([C@@H](C)O)NC(=O)[C@@H](NC(=O)[C@@H]2CCC(=O)N2)[C@@H](C)OC(=O)[C@H](CCC(N)=O)N(C)C(=O)[C@H](Cc2ccc(O)cc2)NC(=O)[C@H](CCCNC(=N)N)NC1=O` ([pGlu]TT[NMeA]LRY[NMeQ]; ester 2-C): “inactive”. In turn, `C=C(C)[C@H]1Cc2c(ccc3c2O[C@@H]2COc4cc(OC)c(OC)cc4[C@@H]2C3=O)O1` [ROTENONE] came in with a 50% inhibitory concentration (IC50) in assay [3] of 0.078 mM.
